{
  "source": "PubChem BioAssay AID1259409",
  "about": "(Chemical Carcinogenesis Research Information System (CCRIS), 2018)",
  "origin": "cited, not measured here",
  "test_system": "rodent chemically induced tumor inhibition, incidence and multiplicity",
  "assay": "CCRIS tumor inhibitor studies",
  "conditions": "Dose [Inhibitor]: 0, Route [Inhibitor]: ORAL, Species: RAT, Strain/Sex: ACI/N/MALE, Promoter: NONE USED",
  "data": [
    {"smiles": "C=CC/C(=N/OS(=O)(=O)O)S[C@@H]1O[C@H](CO)[C@@H](O)[C@H](O)[C@H]1O", "values": [
      {"measurement": "tumour outcome (control, treated, inhibition, significance)", "setting": "Carcinogen: 4-NITROQUINOLINE-1-OXIDE, 56-57-5, 1200 PPM IN DIET BEGINNING 1 WK POST CARCINOGEN TREATMENT AND CONTINUING FOR 23 WK (STUDY DURATION: 37 WK), Target Tissue: Type of Lesion: TONGUE: CARCINOMA, Dose [Carcinogen]: 10 PPM IN DRINKING WATER FOR 12 WK", "value": "12/17 (71%), 0/15 (0%), 100%, p 0.0003"},
      {"measurement": "tumour outcome (control, treated, inhibition, significance)", "setting": "Carcinogen: 4-NITROQUINOLINE-1-OXIDE, 56-57-5, 1200 PPM IN DIET BEGINNING 1 WK POST CARCINOGEN TREATMENT AND CONTINUING FOR 23 WK (STUDY DURATION: 37 WK), Target Tissue: Type of Lesion: TONGUE: PAPILLOMA, Dose [Carcinogen]: 10 PPM IN DRINKING WATER FOR 12 WK", "value": "5/17 (29%), 2/15 (13%), 55%, not calculated"},
      {"measurement": "tumour outcome (control, treated, inhibition, significance)", "setting": "Carcinogen: 4-NITROQUINOLINE-1-OXIDE, 56-57-5, 1200 PPM IN DIET BEGINNING 1 WK PRIOR TO CARCINOGEN TREATMENT AND CONTINUING FOR 1 WK POST CARCINOGEN TREATMENT (STUD, Target Tissue: Type of Lesion: TONGUE: CARCINOMA, Dose [Carcinogen]: 10 PPM IN DRINKING WATER FOR 12 WK", "value": "12/17 (71%), 0/15 (0%), 100%, p 0.00003"},
      {"measurement": "tumour outcome (control, treated, inhibition, significance)", "setting": "Carcinogen: 4-NITROQUINOLINE-1-OXIDE, 56-57-5, 1200 PPM IN DIET BEGINNING 1 WK PRIOR TO CARCINOGEN TREATMENT AND CONTINUING FOR 1 WK POST CARCINOGEN TREATMENT (STUD, Target Tissue: Type of Lesion: TONGUE: PAPILLOMA, Dose [Carcinogen]: 10 PPM IN DRINKING WATER FOR 12 WK", "value": "5/17 (29%), 1/15 (7%), 76%, not calculated"},
      {"measurement": "tumour outcome (control, treated, inhibition, significance)", "setting": "Carcinogen: DIETHYLNITROSAMINE, 55-18-5, 1200 PPM IN DIET BEGINNING 1 WK PRIOR TO FIRST CARCINOGEN DOSE AND CONTINUING TO 1 WK POST LAST CARCINOGEN DOSE (STUD, Target Tissue: Type of Lesion: LIVER: ADENOMA, Dose [Carcinogen]: 40 PPM IN DRINKING WATER FOR 5 WK", "value": "10/10 (100%), 2/12 (17%), 83%, p<0.0002"},
      {"measurement": "tumour outcome (control, treated, inhibition, significance)", "setting": "Carcinogen: DIETHYLNITROSAMINE, 55-18-5, 1200 PPM IN DIET BEGINNING 1 WK PRIOR TO FIRST CARCINOGEN DOSE AND CONTINUING TO 1 WK POST LAST CARCINOGEN DOSE (STUD, Target Tissue: Type of Lesion: LIVER: CARCINOMA, Dose [Carcinogen]: 40 PPM IN DRINKING WATER FOR 5 WK", "value": "10/10 (100%), 4/12 (33%), 67%, p<0.002"}
    ]}
  ]
}
